Columns and labels:
[1] = test system: Tissue Factor (TF) production by human breast cancer cell line MDA-MB-231; experiment: TF ELISA, MDA-MB-231; type: cell-based
Description: (§1) IMUBIND Tissue Factor ELISA Kit (American Diagnostica Inc, Greenwich, Conn.) was used to determine TF concentration in each sample. The ELISA was carried out according to manufacturer's procedure.

[2] = test system: Tissue Factor (TF) production by human melanoma cell line RPMI-7951; experiment: TF ELISA, RPMI-7951; type: cell-based
Description: as §1

[3] = test system: SNB-19; conditions: 48 hours; for GI50: read-out: Median Growth Inhibitory Concentration (GI50), SNB-19, CNS Cancer
[4] = test system: HUVECS; experiment: Emory Laboratory Cell Screen, Neutral Red, HUVECS; type: cell-based, human; conditions: Homo sapiens, HUVEC, 72 hours, read-out: Median Growth Inhibitory Concentration (GI50)
Description: (§2) Human tumor and endothelial cell lines were treated for 72 hours with compounds at a minimum of four concentrations between 0.1 μM-40 μM. Neutral Red assay was used to calculate cell viability.

[5] = test system: MDA-MB-435; experiment: Emory Laboratory Cell Screen, Neutral Red, MDA-MB-435; type: cell-based, human; conditions: Homo sapiens, MDA-MB-435, Breast Cancer, 72 hours, read-out: Median Growth Inhibitory Concentration (GI50)
Description: as §2

[6] = test system: Vascular Endothelial Growth Factor (VEGF) production by human prostate cancer cell line PC-3; experiment: VEGF ELISA, PC-3; type: cell-based; conditions: for VEGF (% of DMSO): DMSO = 100%
[7] = test system: Tissue Factor (TF) production by human prostate cancer cell line DU-145; experiment: TF ELISA, DU-145; type: cell-based; conditions: 20 μM; for TF (% of DMSO): DMSO = 100%; for TF: mean of triplicate and S.D., DMSO 7699 ± 406
Description: (§3) Cells were treated with 1% Triton X-100 in PBS and left overnight at 4° C. overnight to solubilize TF. […] IMUBIND Tissue Factor ELISA Kit (American Diagnostica Inc, Greenwich, Conn.) was used to determine TF concentration in each sample. The ELISA was carried out according to manufacturer's procedure.

[8] = test system: MDA-MB-231; experiment: Emory Laboratory Cell Screen, Neutral Red, MDA-MB-231; type: cell-based, human; conditions: Homo sapiens, MDA-MB-231, Breast Cancer, 72 hours, read-out: Median Growth Inhibitory Concentration (GI50)
Description: as §2

[9] = test system: Tissue Factor (TF) production by human prostate cancer cell line PC-3; experiment: TF ELISA, PC-3; type: cell-based; conditions: 20 μM; for TF (% of DMSO): DMSO = 100%; for TF: mean of triplicate and S.D., DMSO 203 ± 6
Description: as §3

[10] = test system: Human tumor and endothelial cell lines; experiment: Emory Laboratory Cell Screen, mean over cell lines; type: cell-based; conditions: Homo sapiens, Endothelial cell; Mean over the Emory cell lines; 72 hours; read-out: Median Growth Inhibitory Concentration (GI50), Mean
Description: as §2

[11] = test system: RPMI 7951; experiment: Emory Laboratory Cell Screen, Neutral Red, RPMI 7951; type: cell-based, human; conditions: Homo sapiens, RPMI 7951, Melanoma, 72 hours, read-out: Median Growth Inhibitory Concentration (GI50)
Description: as §2

[12] = test system: Vascular Endothelial Growth Factor (VEGF) production by human prostate cancer cell line DU-145; experiment: VEGF ELISA, DU-145; type: cell-based; conditions: for VEGF (% of DMSO): DMSO = 100%
[13] = Table 5, 5 μM, DMSO control 7054
[14] = Table 5, 20 μM, DMSO control 7054
[15] = 20 μM, mean of triplicate and S.D., DMSO 2103 ± 100
[16] = Table 4, 20 μM, mean of triplicate and S.D.
[17] = 20 μM, mean of triplicate and S.D., DMSO 18760 ± 2633

Compound | TF ([2]; 5 μM, DMSO = 100) | TF ELISA ([2]; 5 μM, DMSO control 7054) | TF ([2]; 20 μM, DMSO = 100) | TF ELISA ([2]; 20 μM, DMSO control 7054) | TF [2, 13] | TF [2, 14] | GI50 [3] | VEGF (% of DMSO) ([6]; 20 μM) | VEGF [6, 15] | VEGF ([6]; Table 4, 20 μM, DMSO = 100) | VEGF [6, 16] | TF (% of DMSO) [7] | TF [7] | TF (% of DMSO) [9] | TF [9] | GI50 [10] | GI50 [11] | VEGF (% of DMSO) ([12]; 20 μM) | VEGF [12, 17] | VEGF ([12]; Table 4, 20 μM, DMSO = 100) | other results
C(=C\c1ccccc1)/S/C=C/c1ccccc1 [EF15] | 106% | 7506 pg/ml/well | 109% | 7663 pg/ml/well | 7506 pg/mL | 7663 pg/mL | > 100 µM |  |  |  |  |  |  |  |  |  |  |  |  |  | TF ([1]; 20 μM, DMSO = 100): 101%; TF ([1]; 20 μM, DMSO control 45753): 46394 pg/mL
O=C1C(=Cc2ccccc2O)COCC1=Cc1ccccc1O [EF25, 3,5-Bis(2-hyrdoxybenzylidene)tetrahydro4-H-pyran4-one] |  |  |  |  |  |  | 2.2 µM |  |  |  |  |  |  |  |  |  |  |  |  |  | CC50 ([3]; read-out: Median Lethal Concentration (LC50), CNS Cancer, SNB-19, SRB assay): 37.3 µM
3,5-Bis(2-hydroxybenzylidene)-sulfone [EF11] |  |  |  |  |  |  | 48 µM |  |  |  |  |  |  |  |  |  |  |  |  |  | 
COc1cc(/C=C/C(=O)CC(=O)/C=C/c2ccc(O)c(OC)c2)ccc1O [Curcumin] | 126% | 7974 pg/ml/well | 15% | 1026 pg/ml/well | 8871 pg/mL | 1026 pg/mL |  | (99%) | 2088 ± 103 pg/mL | 99% | 2088 ± 103 pg/mL | (93%) | 7134 ± 301 pg/mL | (68%) | 138 ± 10 pg/mL | 14.8 µM | 6.3 µM | (96%) | 17957 ± 1910 pg/mL | 96% | TF ([1]; 5 μM, DMSO = 100): 100%; TF ([1]; 5 μM, DMSO control 45753): 45814 pg/mL; TF ([1]; 10 μM, DMSO = 100): 98%; TF ([1]; 10 μM, DMSO control 45753): 44727 pg/mL; GI50 [4]: 25 µM; GI50 [5]: 16.3 µM; GI50 [8]: 11.6 µM; VEGF [12, 16]: 17957 ± 1910 pg/mL
N.N.[Cl][Pt][Cl] [Cisplatin, reference compound] |  |  |  |  |  |  | 1 µM |  |  |  |  |  |  |  |  |  |  |  |  |  | 
O=C1C(=Cc2ccccc2O)CCCC1=Cc1ccccc1O [EF4, 2,6Bis(2-hydroxybenzylidene)cyclohexanone] |  |  |  |  |  |  |  | (2%) | 48 ± 83 pg/mL | 2% | 48 ± 83 pg/mL | (67%) | 5180 ± 420 pg/mL | (16%) | 33 ± 7 pg/mL | 3.6 µM | 3.6 µM | (55%) | 10274 ± 4467 pg/mL | 55% | VEGF [12, 16]: 10274 ± 4467 pg/mL

Source: patent US7371766B2, “Curcumin analogs with anti-tumor and anti-angiogenic properties” (Emory University, priority 1999, dated 2008)
